Values after ≈ are worked out from the molar mass of the structure shown.
How the values were obtained:
Type in all cases: functional
Streptococcus pneumoniae [1] = test: Antibacterial activity against Streptococcus pneumoniae ATCC 49619 by microbroth dilution method
Staphylococcus aureus [2] = test: Antibacterial activity against Staphylococcus aureus 15B196 by microbroth dilution method
Streptococcus pneumoniae [3] = test: Antibacterial activity against Streptococcus pneumoniae 07P390 by microbroth dilution method
Haemophilus influenzae = test: Antibacterial activity against Haemophilus influenzae ATCC 49247 by microbroth dilution method
Staphylococcus aureus [4] = test: Antibacterial activity against Staphylococcus aureus PU32 by microbroth dilution method
Streptococcus pneumoniae [5] = test: Antibacterial activity against Streptococcus pneumoniae PU09 by microbroth dilution method
Streptococcus pyogenes = test: Antibacterial activity against Streptococcus pyogenes 12-206 by microbroth dilution method

| Structure (SMILES) | MIC (Streptococcus pneumoniae [1]) [µg/mL] | MIC (Staphylococcus aureus [2]) [µg/mL] | MIC (Streptococcus pneumoniae [3]) [µg/mL] | MIC (Haemophilus influenzae) [µg/mL] | MIC (Staphylococcus aureus [4]) [µg/mL] | MIC (Streptococcus pneumoniae [5]) [µg/mL] | MIC (Streptococcus pyogenes) [µg/mL] |
| --- | --- | --- | --- | --- | --- | --- | --- |
| CC[C@H]1OC(=O)[C@H](C)C(=O)[C@H](C)[C@@H](O[C@@H]2O[C@H](C)C[C@H](N(C)C)[C@H]2O)[C@](C)(OC)C[C@@H](C)C(=O)[C@H](C)[C@H]2N(CCC#Cc3ccc4c(=O)c(C(=O)O)cn(C5CC5)c4c3)C(=O)O[C@]12C | 0.016 (≈ 0.0179 µM) | 16 (≈ 17.9 µM) | 2 (≈ 2.24 µM) | 4 (≈ 4.48 µM) | 0.25 (≈ 0.28 µM) | 0.5 (≈ 0.561 µM) | 1 (≈ 1.12 µM) |
| CC[C@H]1OC(=O)[C@H](C)C(=O)[C@H](C)[C@@H](O[C@@H]2O[C@H](C)C[C@H](N(C)C)[C@H]2O)[C@](C)(OC)C[C@@H](C)C(=O)[C@H](C)[C@H]2N(CCCCCCC#Cc3ccc4c(c3)c(=O)c(C(=O)O)cn4C3CC3)C(=O)O[C@]12C | ≤ 0.008 | 128 (≈ 135 µM) | 16 (≈ 16.9 µM) | 4 (≈ 4.22 µM) | 4 (≈ 4.22 µM) | 1 (≈ 1.05 µM) | 1 (≈ 1.05 µM) |
| CC[C@H]1OC(=O)[C@H](C)C(=O)[C@H](C)[C@@H](O[C@@H]2O[C@H](C)C[C@H](N(C)C)[C@H]2O)[C@](C)(OC)C[C@@H](C)C(=O)[C@H](C)[C@H]2N(CCCCc3ccc4c(c3)c(=O)c(C(=O)O)cn4C3CC3)C(=O)O[C@]12C | 0.06 (≈ 0.067 µM) | 512 (≈ 571 µM) | 64 (≈ 71.4 µM) | 32 (≈ 35.7 µM) | 1 (≈ 1.12 µM) | 4 (≈ 4.46 µM) | 2 (≈ 2.23 µM) |
| CC[C@H]1OC(=O)[C@H](C)C(=O)[C@H](C)[C@@H](O[C@@H]2O[C@H](C)C[C@H](N(C)C)[C@H]2O)[C@](C)(OC)C[C@@H](C)C(=O)[C@H](C)[C@H]2N(CCC#Cc3ccc4c(c3)c(=O)c(C(N)=O)cn4C3CC3)C(=O)O[C@]12C | ≤ 0.008 | 32 (≈ 35.9 µM) | 8 (≈ 8.98 µM) | 16 (≈ 18 µM) | 1 (≈ 1.12 µM) | 1 (≈ 1.12 µM) | 1 (≈ 1.12 µM) |
| CC[C@H]1OC(=O)[C@H](C)C(=O)[C@H](C)[C@@H](O[C@@H]2O[C@H](C)C[C@H](N(C)C)[C@H]2O)[C@](C)(OC)C[C@@H](C)C(=O)[C@H](C)[C@H]2N(CCCCCCC#Cc3ccc4c(=O)c(C(=O)O)cn(C5CC5)c4c3)C(=O)O[C@]12C | ≤ 0.008 | 32 (≈ 33.7 µM) | 8 (≈ 8.44 µM) | 16 (≈ 16.9 µM) | 4 (≈ 4.22 µM) | 1 (≈ 1.05 µM) | 1 (≈ 1.05 µM) |
| CC[C@H]1OC(=O)[C@H](C)C(=O)[C@H](C)[C@@H](O[C@@H]2O[C@H](C)C[C@H](N(C)C)[C@H]2O)[C@](C)(OC)C[C@@H](C)C(=O)[C@H](C)[C@H]2N(CCC#Cc3ccc4c(c3)c(=O)c(C(=O)O)cn4C3CC3)C(=O)O[C@]12C | 0.06 (≈ 0.0673 µM) | 512 (≈ 574 µM) | 256 (≈ 287 µM) | 32 (≈ 35.9 µM) | 2 (≈ 2.24 µM) | 1 (≈ 1.12 µM) | 4 (≈ 4.48 µM) |
| CC[C@H]1OC(=O)[C@H](C)C(=O)[C@H](C)[C@@H](O[C@@H]2O[C@H](C)C[C@H](N(C)C)[C@H]2O)[C@](C)(OC)C[C@@H](C)C(=O)[C@H](C)[C@H]2N(CCCC#Cc3ccc4c(c3)c(=O)c(C(=O)O)cn4C3CC3)C(=O)O[C@]12C | 0.03 (≈ 0.0331 µM) | 256 (≈ 283 µM) | 128 (≈ 141 µM) | 8 (≈ 8.83 µM) | 4 (≈ 4.41 µM) | 1 (≈ 1.1 µM) | 2 (≈ 2.21 µM) |
| CC[C@H]1OC(=O)[C@H](C)C(=O)[C@H](C)[C@@H](O[C@@H]2O[C@H](C)C[C@H](N(C)C)[C@H]2O)[C@](C)(OC)C[C@@H](C)C(=O)[C@H](C)[C@H]2N(CCCCC#Cc3ccc4c(=O)c(C(=O)O)cn(C5CC5)c4c3)C(=O)O[C@]12C | 0.016 (≈ 0.0174 µM) | 256 (≈ 278 µM) | 8 (≈ 8.69 µM) | 32 (≈ 34.8 µM) | 2 (≈ 2.17 µM) | 2 (≈ 2.17 µM) | 2 (≈ 2.17 µM) |
| CC[C@H]1OC(=O)[C@H](C)C(=O)[C@H](C)[C@@H](O[C@@H]2O[C@H](C)C[C@H](N(C)C)[C@H]2O)[C@](C)(OC)C[C@@H](C)C(=O)[C@H](C)[C@H]2N(CCCC#Cc3ccc4c(=O)c(C(=O)O)cn(C5CC5)c4c3)C(=O)O[C@]12C | 0.03 (≈ 0.0331 µM) | 256 (≈ 283 µM) | 2 (≈ 2.21 µM) | 32 (≈ 35.3 µM) | 4 (≈ 4.41 µM) | 1 (≈ 1.1 µM) | 2 (≈ 2.21 µM) |
| CC[C@H]1OC(=O)[C@H](C)C(=O)[C@H](C)[C@@H](O[C@@H]2O[C@H](C)C[C@H](N(C)C)[C@H]2O)[C@](C)(OC)C[C@@H](C)C(=O)[C@H](C)[C@H]2N(CCCCC#Cc3ccc4c(c3)c(=O)c(C(=O)O)cn4C3CC3)C(=O)O[C@]12C | 0.016 (≈ 0.0174 µM) | 256 (≈ 278 µM) | 128 (≈ 139 µM) | 32 (≈ 34.8 µM) | 2 (≈ 2.17 µM) | 1 (≈ 1.09 µM) | 4 (≈ 4.35 µM) |
| CC[C@H]1OC(=O)[C@H](C)C(=O)[C@H](C)[C@@H](O[C@@H]2O[C@H](C)C[C@H](N(C)C)[C@H]2O)[C@](C)(OC)C[C@@H](C)C(=O)[C@H](C)[C@H]2N(CCN3CCN(c4c(F)cc5c(=O)c(C(=O)O)cn(C6CC6)c5c4OC)CC3)C(=O)O[C@]12C | 0.25 (≈ 0.25 µM) | 32 (≈ 32 µM) | 2 (≈ 2 µM) | 32 (≈ 32 µM) | 8 (≈ 8 µM) | 2 (≈ 2 µM) | 8 (≈ 8 µM) |
| CC[C@H]1OC(=O)[C@H](C)C(=O)[C@H](C)[C@@H](O[C@@H]2O[C@H](C)C[C@H](N(C)C)[C@H]2O)[C@](C)(OC)C[C@@H](C)C(=O)[C@H](C)[C@H]2N(CCCCN3CCN(c4cc5c(cc4F)c(=O)c(C(=O)O)cn5C4CC4)CC3)C(=O)O[C@]12C | ≤ 0.008 | 256 (≈ 256 µM) | 2 (≈ 2 µM) | 8 (≈ 8.01 µM) | 2 (≈ 2 µM) | 0.5 (≈ 0.501 µM) | 0.5 (≈ 0.501 µM) |
| CC[C@H]1OC(=O)[C@H](C)C(=O)[C@H](C)[C@@H](O[C@@H]2O[C@H](C)C[C@H](N(C)C)[C@H]2O)[C@](C)(OC)C[C@@H](C)C(=O)[C@H](C)[C@H]2N(CC/C=C\c3ccc4c(c3)c(=O)c(C(=O)O)cn4C3CC3)C(=O)O[C@]12C | ≤ 0.008 | 256 (≈ 286 µM) | 32 (≈ 35.8 µM) | 8 (≈ 8.95 µM) | 0.5 (≈ 0.559 µM) | 1 (≈ 1.12 µM) | 2 (≈ 2.24 µM) |
| CC[C@H]1OC(=O)[C@H](C)C(=O)[C@H](C)[C@@H](O[C@@H]2O[C@H](C)C[C@H](N(C)C)[C@H]2O)[C@](C)(OC)C[C@@H](C)C(=O)[C@H](C)[C@H]2N(CCCCCC#Cc3ccc4c(=O)c(C(=O)O)cn(C5CC5)c4c3)C(=O)O[C@]12C | ≤ 0.008 | 128 (≈ 137 µM) | 16 (≈ 17.1 µM) | 16 (≈ 17.1 µM) | 4 (≈ 4.28 µM) | 1 (≈ 1.07 µM) | 2 (≈ 2.14 µM) |
| CC[C@H]1OC(=O)[C@H](C)[C@@H](O[C@H]2C[C@@](C)(OC)[C@@H](O)[C@H](C)O2)[C@H](C)[C@@H](O[C@@H]2O[C@H](C)C[C@H](N(C)C)[C@H]2O)[C@](C)(OC)C[C@@H](C)C(=O)[C@H](C)[C@@H](O)[C@]1(C)O [CLARITHROMYCIN] | 0.03 (≈ 0.0401 µM) | 512 (≈ 685 µM) | 512 (≈ 685 µM) | 16 (≈ 21.4 µM) | 64 (≈ 85.6 µM) | 8 (≈ 10.7 µM) | 512 (≈ 685 µM) |
| CC[C@H]1OC(=O)[C@H](C)C(=O)[C@H](C)[C@@H](O[C@@H]2O[C@H](C)C[C@H](N(C)C)[C@H]2O)[C@](C)(OC)C[C@@H](C)C(=O)[C@H](C)[C@H]2N(CCN3CCN(c4cc5c(cc4F)c(=O)c(C(=O)O)cn5C4CC4)CC3)C(=O)O[C@]12C | 0.03 (≈ 0.0309 µM) | 256 (≈ 264 µM) | 2 (≈ 2.06 µM) | 32 (≈ 33 µM) | 4 (≈ 4.12 µM) | 2 (≈ 2.06 µM) | 1 (≈ 1.03 µM) |
| CC[C@H]1OC(=O)[C@H](C)C(=O)[C@H](C)[C@@H](O[C@@H]2O[C@H](C)C[C@H](N(C)C)[C@H]2O)[C@](C)(OC)C[C@@H](C)C(=O)[C@H](C)[C@H]2N(CCCC#Cc3ccc4c(=O)c(C(N)=O)cn(C5CC5)c4c3)C(=O)O[C@]12C | 0.03 (≈ 0.0331 µM) | 512 (≈ 566 µM) | 128 (≈ 141 µM) | 128 (≈ 141 µM) | 4 (≈ 4.42 µM) | 2 (≈ 2.21 µM) | 4 (≈ 4.42 µM) |
| CC[C@H]1OC(=O)[C@H](C)C(=O)[C@H](C)[C@@H](O[C@@H]2O[C@H](C)C[C@H](N(C)C)[C@H]2O)[C@](C)(OC)C[C@@H](C)C(=O)[C@H](C)[C@H]2N(CCCCc3ccc4c(=O)c(C(N)=O)cn(C5CC5)c4c3)C(=O)O[C@]12C | 0.03 (≈ 0.0335 µM) | 512 (≈ 572 µM) | 32 (≈ 35.8 µM) | 32 (≈ 35.8 µM) | 1 (≈ 1.12 µM) | 0.25 (≈ 0.279 µM) | 4 (≈ 4.47 µM) |
